Measured values as given in patent US9493436B2, “Tyrosine phosphatase inhibitors and uses thereof to modulate the activity of enzymes involved in the pathology of Mycobacterium tuberculosis” (priority 2011, dated 2016).
Entries after “also recorded” stand apart in the source; their conditions may differ.

Tests used:
mPTPA = mPTPA (Mycobacterium tuberculosis, UniProt P9WIA1); experiment: PTP selectivity panel: mPTPA; type: biochemical
mPTPB = target: T1, mPTPB (Mycobacterium tuberculosis, UniProt I6WXK4); experiment: biochemical; type: biochemical
T1 construct: The full-length mPTPB with a N-terminal His6-tag was expressed and purified; His6 (N); made in house; host or cells: E. coli BL21/DE3 (pET28b-mPTPB)
T1 sequence (I6WXK4 1-276): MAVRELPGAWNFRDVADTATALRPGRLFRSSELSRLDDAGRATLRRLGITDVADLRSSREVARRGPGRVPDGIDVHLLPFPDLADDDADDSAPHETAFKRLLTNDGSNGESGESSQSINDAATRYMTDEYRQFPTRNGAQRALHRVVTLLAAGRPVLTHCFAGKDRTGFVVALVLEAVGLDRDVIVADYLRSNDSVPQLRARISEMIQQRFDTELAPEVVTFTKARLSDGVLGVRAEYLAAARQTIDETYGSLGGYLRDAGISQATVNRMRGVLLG

[1] = tested on: Akt phosphorylation in Raw264.7 cells expressing mPTPB; type: cell-based, mouse; conditions: macrophage cells expressing mPTPB, increasing concentrations
[2] = tested on: ERK1/2 phosphorylation in Raw264.7 cells expressing mPTPB; experiment: ERK phosphorylation in macrophage cells expressing mPTPB (western blot); type: cell-based, mouse; conditions: IFN-γ, L01Z08 especially at 120 and 240 nM
Method: As explained above, ERK phosphorylation is important in the cellular secretion pathway of IL-6. However, mPTPB blocks or inhibits the phosphorylation of ERK which reduces and potentially prevents IL-6 secretion altogether.
Raw264.7 mouse macrophages were cultured in Dulbecco's modified Eagle's medium (DMEM) supplemented with 10% FBS (Invitrogen), penicillin (50 units/mL), and streptomycin (50 μg/mL) under a humidified atmosphere containing 5% CO2 at 37° C. Transfected Raw264.7 cells (Vector, WT-mPTPB) were seeded in a 12-well plate at a density of 4×10^4 cells/well. The following day cells were treated with mPTPB inhibitor 213a for 1 hr, then stimulated with IFN-γ (200 U/ml) for 1 h. […]. Wash with ice-cold phosphate buffered saline, and lysed with lysis buffer on ice for 30 min. Cell lysate is then cleared by centrifuging at 13,000 rpm for 15 min. The phosphorylation of ERK1/2 and Akt was detected by western blotting.

Sequence of mPTPA (P9WIA1 whole entry): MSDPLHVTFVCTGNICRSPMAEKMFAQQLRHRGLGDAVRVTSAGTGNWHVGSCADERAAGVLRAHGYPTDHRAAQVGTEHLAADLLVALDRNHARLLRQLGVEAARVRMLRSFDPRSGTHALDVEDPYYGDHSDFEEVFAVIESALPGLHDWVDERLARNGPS

## Cn1c(-c2ccccc2C(F)(F)F)c(C(=O)CCNC(=O)c2cc(Br)cc(Br)c2)c2cc(C(=O)O)c(O)cc21 [Compound 213a, 3-(3-(3,5-dibromobenzamido)propanoyl)-6-hydroxy-1-methyl-2-(2-(trifluoromethyl)phenyl)-1H-indole-5-carboxylic acid]
mPTPA
  IC50: 10900 ± 500 nM
mPTPB
  more potent than parent compound 207a: 14 fold
  more selective than parent compound 207a: 43 fold
mPTPB; 1 μM, library 13 screened in situ
  In % @ 1 μM (mPTPB): 81%
mPTPB; kinetic analyses, Lineweaver-Burk plot
  mode of mPTPB inhibition: Non-competitive inhibitor; also recorded: reversible and noncompetitive inhibitor
mPTPB; pH 7.0, 25° C.
  Ki: 50 ± 2 nM
mPTPB; pNPP substrate, pH 7.0, 25° C., read-out: IC50 (μM) against mPTPB
  IC50: 0.079 ± 0.01 µM
mPTPB; panel of 11 PTPs
  selectivity for mPTPB over the other ten PTPs: over 90 fold
[1]
  AKT phosphorylation / Akt activation: blocks Akt activation; also recorded: decreased the Akt activity
[2]
  ERK phosphorylation / ERK1/2 activity: restore ERK1/2 activity; also recorded: increased the ERK activity
